ChEMBL document CHEMBL1932922, “Synthesis, antitubercular evaluation and 3D-QSAR study of N-phenyl-3-(4-fluorophenyl)-4-substituted pyrazole derivatives” (Bioorg Med Chem Lett, 2012)

System: Mycobacterium tuberculosis
Experiment: Antituberculosis activity against Mycobacterium tuberculosis H37Rv ATCC 27294 by modified BACTEC 460 method
Assay type: functional, organism-based
Details: for IC50 / IC90: Mycobacterium tuberculosis, H37Rv ATCC 27294

Compound | pIC90 | IC50 (read-out: pIC50 (converted)) [µM] | IC90 [µM] | IC50 (read-out: IC50) [µM]
Cc1ccc(C2=NN[C@@H](c3cn(-c4ccccc4)nc3-c3ccc(F)cc3)C2)cc1 | 5.39 | 5.37 | – | –
Nc1nc(-c2ccccc2)cc(-c2cn(-c3ccccc3)nc2-c2ccc(F)cc2)n1 | 5 | 5.89 | 9.94 | 5.94
Fc1ccc(-c2nn(-c3ccccc3)cc2[C@H]2CC(c3ccc(Cl)cc3)=NN2)cc1 | 4.16 | 43.7 | 68.7 | 43.3
COc1ccc(C2=NN[C@@H](c3cn(-c4ccccc4)nc3-c3ccc(F)cc3)C2)cc1 | 4.91 | 0.468 | 12.3 | 0.47
Nc1nc(-c2ccc(Cl)cc2)cc(-c2cn(-c3ccccc3)nc2-c2ccc(F)cc2)n1 | <3.65 | 95.5 | > 226 | 95.5
O=C(/C=C/c1cn(-c2ccccc2)nc1-c1ccc(F)cc1)c1ccccc1 | 4.79 | 10.5 | 16.3 | 10.5
COc1ccc(C(=O)/C=C/c2cn(-c3ccccc3)nc2-c2ccc(F)cc2)cc1 | 5 | 6.46 | 10.1 | 6.39
Cc1ccc(C(=O)/C=C/c2cn(-c3ccccc3)nc2-c2ccc(F)cc2)cc1 | 5.1 | 7.24 | 7.96 | 7.18
O=C(/C=C/c1cn(-c2ccccc2)nc1-c1ccc(F)cc1)c1ccc(Cl)cc1 | 4.15 | 33.9 | 71.3 | 33.9
O=C(/C=C/c1cn(-c2ccccc2)nc1-c1ccc(F)cc1)c1ccc(F)cc1 | 5.09 | 7.08 | 8.09 | 7.14
O=C(/C=C/c1cn(-c2ccccc2)nc1-c1ccc(F)cc1)c1ccc(O)cc1 | 5.07 | 7.41 | 8.47 | 7.46
O=C(/C=C/c1cn(-c2ccccc2)nc1-c1ccc(F)cc1)c1ccccc1O | 4.34 | 26.3 | 45.4 | 26.2
O=C(/C=C/c1cn(-c2ccccc2)nc1-c1ccc(F)cc1)c1ccc([N+](=O)[O-])cc1 | 4.27 | 12.6 | 53.5 | 12.7
O=C(/C=C/c1cn(-c2ccccc2)nc1-c1ccc(F)cc1)c1ccc(Br)cc1 | 4.74 | 9.77 | 18.1 | 9.77
O=C(/C=C/c1cn(-c2ccccc2)nc1-c1ccc(F)cc1)c1cccs1 | 4.87 | 8.13 | 13.5 | 8.08
Oc1ccc(C2=NN[C@@H](c3cn(-c4ccccc4)nc3-c3ccc(F)cc3)C2)cc1 | 4.3 | 30.9 | 49.8 | 31
Oc1ccccc1C1=NN[C@@H](c2cn(-c3ccccc3)nc2-c2ccc(F)cc2)C1 | 4.5 | 28.2 | 31.7 | 28.1
O=[N+]([O-])c1cccc(C2=NN[C@@H](c3cn(-c4ccccc4)nc3-c3ccc(F)cc3)C2)c1 | 4.16 | 38.9 | 68.7 | 39
Fc1ccc(-c2nn(-c3ccccc3)cc2[C@H]2CC(c3ccc(Br)cc3)=NN2)cc1 | 4.64 | 7.94 | 22.9 | 7.9
Nc1ccc(C2=NN[C@@H](c3cn(-c4ccccc4)nc3-c3ccc(F)cc3)C2)cc1 | 3.9 | 74.1 | 127 | 74.4
O=C(c1ccccc1)N1N=C(c2ccccc2)C[C@@H]1c1cn(-c2ccccc2)nc1-c1ccc(F)cc1 | 4.06 | 50.1 | 86.4 | 50.4
COc1ccc(C2=NN(C(=O)c3ccccc3)[C@@H](c3cn(-c4ccccc4)nc3-c3ccc(F)cc3)C2)cc1 | 4.62 | 13.8 | 23.8 | 13.8
Cc1ccc(C2=NN(C(=O)c3ccccc3)[C@@H](c3cn(-c4ccccc4)nc3-c3ccc(F)cc3)C2)cc1 | 5.46 | 3.02 | 3.48 | 3.02
O=C(c1ccccc1)N1N=C(c2ccc(Cl)cc2)C[C@@H]1c1cn(-c2ccccc2)nc1-c1ccc(F)cc1 | <3.72 | 51.3 | > 192 | 51.4
O=C(c1ccccc1)N1N=C(c2ccc(F)cc2)C[C@@H]1c1cn(-c2ccccc2)nc1-c1ccc(F)cc1 | 5.49 | 2.63 | 3.22 | 2.65
O=C(c1ccccc1)N1N=C(c2ccc([N+](=O)[O-])cc2)C[C@@H]1c1cn(-c2ccccc2)nc1-c1ccc(F)cc1 | <3.73 | 57.5 | > 187 | 57.4

Compound | pIC90 | IC50 (read-out: pIC50 (converted)) [µM] | IC90 [µM] | IC50 (read-out: IC50) [µM]
O=C(c1ccccc1)N1N=C(c2cccc([N+](=O)[O-])c2)C[C@@H]1c1cn(-c2ccccc2)nc1-c1ccc(F)cc1 | 3.99 | 42.7 | 101 | 42.4
O=C(c1ccccc1)N1N=C(c2ccc(Br)cc2)C[C@@H]1c1cn(-c2ccccc2)nc1-c1ccc(F)cc1 | 4.12 | 38 | 75.7 | 37.8
O=C(c1ccccc1)N1N=C(c2cccs2)C[C@@H]1c1cn(-c2ccccc2)nc1-c1ccc(F)cc1 | 4.05 | 46.8 | 88.7 | 46.9
O=NN1N=C(c2ccccc2O)C[C@@H]1c1cn(-c2ccccc2)nc1-c1ccc(F)cc1 | <3.63 | 117 | > 234 | 119
O=NN1N=C(c2ccc([N+](=O)[O-])cc2)C[C@@H]1c1cn(-c2ccccc2)nc1-c1ccc(F)cc1 | 4.39 | 25.1 | 40.5 | 25.3
O=NN1N=C(c2cccc([N+](=O)[O-])c2)C[C@@H]1c1cn(-c2ccccc2)nc1-c1ccc(F)cc1 | 4.48 | 22.4 | 33.4 | 22.5
O=NN1N=C(c2ccc(Br)cc2)C[C@@H]1c1cn(-c2ccccc2)nc1-c1ccc(F)cc1 | 4.47 | 21.4 | 33.7 | 21.4
Nc1ccc(C2=NN(N=O)[C@@H](c3cn(-c4ccccc4)nc3-c3ccc(F)cc3)C2)cc1 | 4.42 | 20.9 | 37.8 | 20.9
O=NN1N=C(c2cccs2)C[C@@H]1c1cn(-c2ccccc2)nc1-c1ccc(F)cc1 | 4.33 | 26.3 | 46.3 | 26.4
Cc1ccc(-c2cc(-c3cn(-c4ccccc4)nc3-c3ccc(F)cc3)[nH]c(=S)n2)cc1 | 4.45 | 22.4 | 35.5 | 22.2
Fc1ccc(-c2nn(-c3ccccc3)cc2-c2cc(-c3ccc(Cl)cc3)nc(=S)[nH]2)cc1 | 4.74 | 10.2 | 18 | 10.3
Oc1ccc(-c2cc(-c3cn(-c4ccccc4)nc3-c3ccc(F)cc3)[nH]c(=S)n2)cc1 | <3.64 | 69.2 | > 227 | 69.2
Oc1ccccc1-c1cc(-c2cn(-c3ccccc3)nc2-c2ccc(F)cc2)[nH]c(=S)n1 | 4.95 | 8.32 | 11.2 | 8.29
O=[N+]([O-])c1ccc(-c2cc(-c3cn(-c4ccccc4)nc3-c3ccc(F)cc3)[nH]c(=S)n2)cc1 | 4.88 | 12 | 13.1 | 12.2
O=[N+]([O-])c1cccc(-c2cc(-c3cn(-c4ccccc4)nc3-c3ccc(F)cc3)[nH]c(=S)n2)c1 | 4.37 | 28.2 | 43 | 27.9
Fc1ccc(-c2nn(-c3ccccc3)cc2-c2cc(-c3ccc(Br)cc3)nc(=S)[nH]2)cc1 | 4.42 | 115 | – | –
Nc1ccc(-c2cc(-c3cn(-c4ccccc4)nc3-c3ccc(F)cc3)[nH]c(=S)n2)cc1 | <3.64 | 21.9 | > 228 | 22.1
Fc1ccc(-c2nn(-c3ccccc3)cc2-c2cc(-c3cccs3)nc(=S)[nH]2)cc1 | 4.06 | 22.4 | 86.4 | 22.6
Nc1nc(-c2ccc(F)cc2)cc(-c2cn(-c3ccccc3)nc2-c2ccc(F)cc2)n1 | 4.07 | 37.2 | 84.3 | 36.8
Nc1nc(-c2ccc(O)cc2)cc(-c2cn(-c3ccccc3)nc2-c2ccc(F)cc2)n1 | 6.05 | 0.468 | 0.88 | 0.47
Nc1nc(-c2ccccc2O)cc(-c2cn(-c3ccccc3)nc2-c2ccc(F)cc2)n1 | 4.18 | 57.5 | 65.9 | 57
Nc1nc(-c2ccc([N+](=O)[O-])cc2)cc(-c2cn(-c3ccccc3)nc2-c2ccc(F)cc2)n1 | <3.66 | 75.9 | > 220 | 75.4
Nc1nc(-c2cccc([N+](=O)[O-])c2)cc(-c2cn(-c3ccccc3)nc2-c2ccc(F)cc2)n1 | <3.66 | 52.5 | > 220 | 52.9
Nc1nc(-c2ccc(Br)cc2)cc(-c2cn(-c3ccccc3)nc2-c2ccc(F)cc2)n1 | 4.84 | 10.7 | 14.5 | 10.6
Nc1ccc(-c2cc(-c3cn(-c4ccccc4)nc3-c3ccc(F)cc3)nc(N)n2)cc1 | 4.82 | 13.8 | 15 | 13.8
